Test results as given in ChEMBL document CHEMBL5505997, “Synthesis and biological evaluation of novel peptidomimetic inhibitors of the coronavirus 3C-like protease” (Eur J Med Chem, 2024).
pEC50: −log10 of the molar value.

Columns and labels:
SARS-CoV-2 [1] = test: Selectivity ratio of EC50 for antiviral activity against SARS-CoV-2 Omicron BA.1 harboring NSP5 E166V mutant infected in HEK293T cells to EC50 for antiviral activity against wild type SARS-CoV-2 Omicron BA.1 infected in HEK293T cells; assay type: functional
SARS-CoV-2 [2] = test: Antiviral activity against SARS-CoV-2 WA1 harboring NSP5 L50F/E166V mutant infected in HEK293T cells measured after 48 hrs by Nano-Glo luciferase assay; assay type: functional, organism-based, Severe acute respiratory syndrome coronavirus 2
SARS-CoV-2 [3] = test: Selectivity ratio of EC50 for antiviral activity against SARS-CoV-2 Omicron BA.1 harboring NSP5 L50F/E166A/L167F mutant infected in HEK293T cells to EC50 for antiviral activity against wild type SARS-CoV-2 Omicron BA.1 infected in HEK293T cells; assay type: functional
SARS-CoV-2 [4] = test: Antiviral activity against SARS-CoV-2 Omicron BA.1 harboring NSP5 E166V mutant infected in HEK293T cells measured after 48 hrs by Nano-Glo luciferase assay; assay type: functional, organism-based, Severe acute respiratory syndrome coronavirus 2
SARS-CoV-2 [5] = test: Antiviral activity against SARS-CoV-2 WA1 harboring NSP5 E166V mutant infected in HEK293T cells measured after 48 hrs by Nano-Glo luciferase assay; assay type: functional, organism-based, Severe acute respiratory syndrome coronavirus 2
SARS-CoV-2 [6] = test: Selectivity ratio of EC50 for antiviral activity against SARS-CoV-2 Omicron BA.1 harboring NSP5 L50F/E166V mutant infected in HEK293T cells to EC50 for antiviral activity against wild type SARS-CoV-2 Omicron BA.1 infected in HEK293T cells; assay type: functional
SARS-CoV-2 [7] = test: Selectivity ratio of EC50 for antiviral activity against SARS-CoV-2 WA1 harboring NSP5 L50F/E166A/L167F mutant infected in HEK293T cells to EC50 for antiviral activity against wild type SARS-CoV-2 WA1 infected in HEK293T cells; assay type: functional
SARS-CoV-2 [8] = test: Selectivity ratio of EC50 for antiviral activity against SARS-CoV-2 WA1 harboring NSP5 L50F/E166V mutant infected in HEK293T cells to EC50 for antiviral activity against wild type SARS-CoV-2 WA1 infected in HEK293T cells; assay type: functional
SARS-CoV-2 [9] = test: Antiviral activity against SARS-CoV-2 WA1 harboring NSP5 L50F/E166A/L167F mutant infected in HEK293T cells measured after 48 hrs by Nano-Glo luciferase assay; assay type: functional, organism-based, Severe acute respiratory syndrome coronavirus 2
SARS-CoV-2 [10] = test: Antiviral activity against SARS-CoV-2 Omicron BA.1 harboring NSP5 L50F/E166V mutant infected in HEK293T cells measured after 48 hrs by Nano-Glo luciferase assay; assay type: functional, organism-based, Severe acute respiratory syndrome coronavirus 2
SARS-CoV-2 [11] = test: Selectivity ratio of EC50 for antiviral activity against SARS-CoV-2 WA1 harboring NSP5 E166V mutant infected in HEK293T cells to EC50 for antiviral activity against wild type SARS-CoV-2 WA1 infected in HEK293T cells; assay type: functional
SARS-CoV-2 [12] = test: Antiviral activity against SARS-CoV-2 Omicron BA.1 harboring NSP5 L50F/E166A/L167F mutant infected in HEK293T cells measured after 48 hrs by Nano-Glo luciferase assay; assay type: functional, organism-based, Severe acute respiratory syndrome coronavirus 2
SARS-CoV-2 [13] = test: Antiviral activity against SARS-CoV-2 WA1 harboring NSP5 T21I mutant infected in HEK293T cells measured after 48 hrs by Nano-Glo luciferase assay; assay type: functional, organism-based, Severe acute respiratory syndrome coronavirus 2
SARS-CoV-2 [14] = test: Antiviral activity against SARS-CoV-2 Omicron BA.1 harboring NSP5 T21I/E166V mutant infected in HEK293T cells measured after 48 hrs by Nano-Glo luciferase assay; assay type: functional, organism-based, Severe acute respiratory syndrome coronavirus 2
SARS-CoV-2 [15] = test: Antiviral activity against SARS-CoV-2 WA1 harboring NSP5 T21I/E166V mutant infected in HEK293T cells measured after 48 hrs by Nano-Glo luciferase assay; assay type: functional, organism-based, Severe acute respiratory syndrome coronavirus 2
SARS-CoV-2 [16] = test: Antiviral activity against SARS-CoV-2 Omicron BA.1 harboring NSP5 T21I mutant infected in HEK293T cells measured after 48 hrs by Nano-Glo luciferase assay; assay type: functional, organism-based, Severe acute respiratory syndrome coronavirus 2
SARS-CoV-2 [17] = test: Selectivity ratio of EC50 for antiviral activity against SARS-CoV-2 Omicron BA.1 harboring NSP5 T21I/E166V mutant infected in HEK293T cells to EC50 for antiviral activity against wild type SARS-CoV-2 Omicron BA.1 infected in HEK293T cells; assay type: functional
SARS-CoV-2 [18] = test: Selectivity ratio of EC50 for antiviral activity against SARS-CoV-2 WA1 harboring NSP5 T21I mutant infected in HEK293T cells to EC50 for antiviral activity against wild type SARS-CoV-2 WA1 infected in HEK293T cells; assay type: functional
SARS-CoV-2 [19] = test: Selectivity ratio of EC50 for antiviral activity against SARS-CoV-2 WA1 harboring NSP5 T21I/E166V mutant infected in HEK293T cells to EC50 for antiviral activity against wild type SARS-CoV-2 WA1 infected in HEK293T cells; assay type: functional
SARS-CoV-2 [20] = test: Selectivity ratio of EC50 for antiviral activity against SARS-CoV-2 Omicron BA.1 harboring NSP5 T21I mutant infected in HEK293T cells to EC50 for antiviral activity against wild type SARS-CoV-2 Omicron BA.1 infected in HEK293T cells; assay type: functional

Structure (SMILES) | Ratio EC50 (SARS-CoV-2 [1]) | pEC50 (SARS-CoV-2 [2]) | Ratio EC50 (SARS-CoV-2 [3]) | pEC50 (SARS-CoV-2 [4]) | pEC50 (SARS-CoV-2 [5]) | Ratio EC50 (SARS-CoV-2 [6]) | Ratio EC50 (SARS-CoV-2 [7]) | Ratio EC50 (SARS-CoV-2 [8]) | pEC50 (SARS-CoV-2 [9]) | pEC50 (SARS-CoV-2 [10]) | Ratio EC50 (SARS-CoV-2 [11]) | pEC50 (SARS-CoV-2 [12]) | pEC50 (SARS-CoV-2 [13]) | pEC50 (SARS-CoV-2 [14]) | pEC50 (SARS-CoV-2 [15]) | pEC50 (SARS-CoV-2 [16]) | Ratio EC50 (SARS-CoV-2 [17]) | Ratio EC50 (SARS-CoV-2 [18]) | Ratio EC50 (SARS-CoV-2 [19]) | Ratio EC50 (SARS-CoV-2 [20])
CCC(CC)COC(=O)[C@H](C)N[P@](=O)(OC[C@H]1O[C@@](C#N)(c2ccc3c(N)ncnn23)[C@H](O)[C@@H]1O)Oc1ccccc1 | 0.4 | 8.15 | 0.7 | 8.22 | 7.96 | 0.4 | 1.1 | 0.7 | 7.96 | 8.22 | 1.1 | 8.05 |  |  |  |  |  |  |  | 
CC(C)(C)[C@H](NC(=O)C(F)(F)F)C(=O)N1C[C@H]2[C@@H]([C@H]1C(=O)N[C@H](C#N)C[C@@H]1CCNC1=O)C2(C)C |  | 5.41 |  | 5.14 | 5.35 |  |  |  | 6.21 | 5.07 |  | 5.54 | 7.10 | 4.92 | 5.07 | 6.55 |  |  |  | 
Cc1cc(C(=O)N[C@@H](Cc2cccc3ccccc23)C(=O)N[C@@H](CC(C)C)C(=O)N[C@H](C=O)C[C@@H]2CCCNC2=O)no1 | 0.2 | 6.77 | 1.5 | 7.10 | 6.89 | 0.5 | 2 | 0.9 | 6.41 | 6.82 | 0.6 | 6.31 | 6.44 | 6.82 | 6.77 | 6.17 | 0.5 | 1.8 | 0.8 | 2.1
